# Counter-ions that a name gives are not always drawn.
# Tested on: aorta rings
# Assay: Vasorelaxant action in vitro (phenylephrine-contracted rabbit aorta rings, organ bath)
# Conditions: Oryctolagus cuniculus; concentration needed to reduce the phenylephrine contraction of rabbit aorta rings by 50%
# Experimental: B-1. Vasorelaxant Action In Vitro
# Rabbits are stunned by a blow to the neck and exsanguinated. The aorta is removed, freed from adhering tissue and divided into rings of width 1.5 mm, which are placed individually under prestress into 5 ml organ baths with carbogen-sparged Krebs-Henseleit solution at 37° C. having the following composition (each mM): sodium chloride 119; potassium chloride: 4.8; calcium chloride dihydrate: 1; magnesium sulfate heptahydrate: 1.4; potassium dihydrogenphosphate: 1.2; sodium hydrogencarbonate: 25; glucose: 10. The contractile force is determined with Statham UC2 cells, amplified and digitalized using A/D transducers (DAS-1802 HC, Keithley Instruments Munich), and recorded in parallel on linear recorders. To obtain a contraction, phenylephrine is added to the bath cumulatively in increasing concentration. After several control cycles, the substance to be studied is added in increasing dosage each time in every further run, and the magnitude of the contraction is compared with the magnitude of the contraction attained in the last preceding run. This is used to calculate the concentration needed to reduce the magnitude of the control value by 50% (IC50 value). The standard administration volume is 5 μl; the DMSO content in the bath solution corresponds to 0.1%.
row,Compound,IC50 [µM]
1,"CCc1nc(=O)c2cnc(-c3nn(Cc4ccccc4F)c4ncccc34)nc2[nH]1 [Example 153, 2-Ethyl-7-[1-(2-fluorobenzyl)-1H-pyrazolo[3,4-b]pyridin-3-yl]pyrimido[4,5-d]pyrimidin-4(1H)-one]",1.3
2,"Cn1c(=O)[nH]c2nc(-c3nn(Cc4ccccc4F)c4ncccc34)nc(C(C)(C)O)c21 [Example 136, 2-[1-(2-Fluorobenzyl)-1H-pyrazolo[3,4-b]pyridin-3-yl]-6-(2-hydroxypropan-2-yl)-7-methyl-7,9-dihydro-8H-purin-8-one]",0.114
3,"Nc1nc(-c2nn(Cc3ccccc3F)c3ncccc23)nc2onc(C(F)(F)F)c12 [Example 15, 6-[1-(2-Fluorobenzyl)-1H-pyrazolo[3,4-b]pyridin-3-yl]-3-(trifluoromethyl)[1,2]oxazolo[5,4-d]pyrimidin-4-amine]",0.73
4,"O=c1[nH]c2nc(-c3nn(Cc4ccccc4F)c4ncccc34)ncc2n1CC(F)(F)F [Example 45, 2-[1-(2-Fluorobenzyl)-1H-pyrazolo[3,4-b]pyridin-3-yl]-7-(2,2,2-trifluoroethyl)-7,9-dihydro-8H-purin-8-one]",0.041
5,"COC(=O)N1CC(=O)Nc2nc(-c3nn(Cc4ccccc4F)c4ncccc34)nc(N)c21 [Example 98, Methyl 4-amino-2-[1-(2-fluorobenzyl)-1H-pyrazolo[3,4-b]pyridin-3-yl]-7-oxo-7,8-dihydropteridine-5(6H)-carboxylate]",0.071
6,"Nc1nc(-c2nn(Cc3ccccc3F)c3ncccc23)nc2[nH]nnc12 [Example 53, 5-[1-(2-Fluorobenzyl)-1H-pyrazolo[3,4-b]pyridin-3-yl]-3H-[1,2,3]triazolo[4,5-d]pyrimidin-7-amine]",0.424
7,"Nc1nc(-n2nc(Cc3ccccc3F)c3ncccc32)nc2[nH]c(=O)n(CCO)c12 [Example 92, 6-Amino-2-[3-(2-fluorobenzyl)-1H-pyrazolo[4,3-b]pyridin-1-yl]-7-(2-hydroxyethyl)-7,9-dihydro-8H-purin-8-one]",0.535
8,"Nc1nc(-c2nn(Cc3ccccc3F)c3ncccc23)nc2cccnc12 [Example 85, 2-[1-(2-Fluorobenzyl)-1H-pyrazolo[3,4-b]pyridin-3-yl]pyrido[3,2-d]pyrimidin-4-amine]",0.164
9,"CC(C)(O)Cn1c(=O)[nH]c2nc(-c3nn(Cc4ccccc4F)c4ncccc34)nc(N)c21 [Example 2, 6-Amino-2-[1-(2-fluorobenzyl)-1H-pyrazolo[3,4-b]pyridin-3-yl]-7-(2-hydroxy-2-methylpropyl)-7,9-dihydro-8H-purin-8-one]",0.049
10,"O=c1[nH]c2nc(-c3nn(Cc4ccccc4F)c4ncccc34)ncc2n1C1CNC1 [Example 147, 7-(Azetidin-3-yl)-2-[1-(2-fluorobenzyl)-1H-pyrazolo[3,4-b]pyridin-3-yl]-7,9-dihydro-8H-purin-8-one hydrochloride]",0.58
11,"COC(=O)N1CCNc2nc(-c3nn(Cc4ccccc4F)c4ncccc34)ccc21 [Example 63, Methyl 6-[1-(2-fluorobenzyl)-1H-pyrazolo[3,4-b]pyridin-3-yl]-3,4-dihydropyrido[2,3-b]pyrazine-1(2H)-carboxylate]",0.139
12,"Nc1nc(-c2nn(Cc3ccccc3F)c3ncccc23)nc2[nH]c(=O)c(C(F)(F)F)nc12 [Example 50, 4-Amino-2-[1-(2-fluorobenzyl)-1H-pyrazolo[3,4-b]pyridin-3-yl]-6-(trifluoromethyl)pteridin-7(8H)-one]",1.39
13,"CNc1nc(-c2nn(Cc3ccccc3F)c3ncccc23)nc2[nH]c(=O)n(CC(F)F)c12 [Example 103, 7-(2,2-Difluoroethyl)-2-[1-(2-fluorobenzyl)-1H-pyrazolo[3,4-b]pyridin-3-yl]-6-(methylamino)-7,9-dihydro-8H-purin-8-one]",0.658
14,"Cn1c(=O)[nH]c2nc(-c3nn(Cc4ccccc4F)c4ncccc34)nc(N3CCC3)c21 [Example 112, 6-(Azetidin-1-yl)-2-[1-(2-fluorobenzyl)-1H-pyrazolo[3,4-b]pyridin-3-yl]-7-methyl-7,9-dihydro-8H-purin-8-one]",1.35
